Results on 2 substances are retold here after PMC5015959, “The Binding of Plasmodium falciparum Adhesins and Erythrocyte Invasion Proteins to Aldolase Is Enhanced by Phosphorylation” (PLoS ONE, 2016).

One may read the Kd as a measure of binding affinity in units of concentration.

One experiment deals with CK2. Kind of experiment: In vitro phosphorylation of CTDs by CK2. In kind it is biochemical. To be noted: 10 μM kinase, 100 μM substrate, 1 mM ATP, 30°C, 3 hours; ES-MS and CID. As to the method: The phosphorylation of MTRAP and TRAP CTDs expressed as fusion proteins with GST was evaluated in vitro by ^32P incorporation (Fig 1A) and by electrospray (ES) mass spectrometry and collision-induced dissociation (CID) fragmentation analysis. […] MTRAP CTD produced as either a recombinant protein or as a synthetic peptide was also phosphorylated by PKA at the same two positions (S2A Fig). […] Using ES-MS and CID it was determined that both CDPK1 and PKA phosphorylated AMA1 at Ser610 (S1B and S2B Figs), the residue implicated in earlier studies. […] CDPK1 but not PKA phosphorylated EBA140 (Table 2, S2E Fig), the exact sites of which were not determined (S1E Fig). […]
(§1) Phosphorylation assays were performed using 10 μM recombinant CDPK1 [37], PKA (Promega), or CK2 (New England Biolabs) in kinase buffer (20 mM Tris-HCl pH 8.0, 20 mM MgCl2, with or without 1 mM CaCl2) and 1 mM ATP at 30°C for 3 hours with 100 μM substrate protein. Products were analysed by mass spectrometry and used in binding assays (see below). […]
Non-phosphorylated, phosphorylated and biotinylated polypeptides were analysed by electrospray (ES)-mass spectrometry and collision-induced dissociation (CID) fragmentation pathway analysis. […] Phosphorylation sites were determined using stand-alone nanospray on an LTQ Orbitrap Velos (Thermo Fisher Scientific). […]

The target of a further experiment is T1, P. falciparum aldolase (Plasmodium falciparum, UniProt Q7KQL9).
T1 construct: made in house
Description: biochemical. In kind it is binding. To be noted: for increase in affinity for aldolase following phosphorylation: phosphorylated versus unmodified CTD, from Kd values of Table 3. An excerpt: CTDs of four classes of type 1 membrane protein (AMA1 and the TRAP, EBL and RH families) that are potential adhesins or host cell invasion proteins derived from apical organelles, and present in the merozoite plasma membrane during invasion, were examined for their ability to bind to aldolase using bio-layer interferometry. Streptavidin-coated biosensors were loaded with biotinylated synthetic peptides or recombinant proteins representing either the full length CTDs or shorter C-terminal sequences (Table 1) and titrated with increasing aldolase concentrations. This analysis enabled the calculation of a dissociation constant (Kd) for each pair of proteins as a measure of the strength of interaction between them.
The effect of the CTD phosphorylation on aldolase binding was investigated using biolayer interferometry using phosphorylated synthetic peptides or peptides phosphorylated in vitro (Table 3).
Protein interactions were analysed by biolayer interferometry using the Octet Red system (ForteBio) at 25°C in 96-well microplates, as described previously. All assays were performed in 100 mM Tris-HCl pH 8.0, according to the manufacturer’s instructions. A baseline was established over 1 min, and biotinylated samples were loaded onto streptavidin sensors for 1 min. The sensors were washed for 1 min and then incubated with aldolase at different concentrations (0.05–250 μM) for 1 min, followed by a dissociation phase over 5 min. The experiments were performed in duplicate or triplicate depending on the experiment. The data were analysed as described previously.

Another experiment relates to CDPK1. Description: In vitro phosphorylation of CTDs by CDPK1. In kind it is biochemical. The arrangement: key: Phosphorylation (+) was confirmed by electrospray-mass spectrometry. The note with it: 10 μM kinase, 100 μM substrate, 1 mM ATP, 30°C, 3 hours; electrospray-mass spectrometry. As to the method: To examine whether or not phosphorylation affected the ability of the CTDs to bind aldolase, we first looked at their ability to be phosphorylated by serine/threonine kinases in vitro. Two kinases, CDPK1 and PKA, which have been implicated in phosphorylation of glideosome proteins, were chosen for this analysis (Table 2).
The phosphorylation of MTRAP and TRAP CTDs expressed as fusion proteins with GST was evaluated in vitro by ^32P incorporation (Fig 1A) and by electrospray (ES) mass spectrometry and collision-induced dissociation (CID) fragmentation analysis. […] Using ES-MS and CID it was determined that both CDPK1 and PKA phosphorylated AMA1 at Ser610 (S1B and S2B Figs), the residue implicated in earlier studies. […] CDPK1 but not PKA phosphorylated EBA140 (Table 2, S2E Fig), the exact sites of which were not determined (S1E Fig). […]
as §1
Non-phosphorylated, phosphorylated and biotinylated polypeptides were analysed by electrospray (ES)-mass spectrometry and collision-induced dissociation (CID) fragmentation pathway analysis. […]

Where no end group is shown, it is not given here. The star is where a group is joined. Biotin = O=C1N[C@H]2[C@H](CS[C@H]2CCCCC(=O)*)N1

T1 sequence (Q7KQL9 whole entry): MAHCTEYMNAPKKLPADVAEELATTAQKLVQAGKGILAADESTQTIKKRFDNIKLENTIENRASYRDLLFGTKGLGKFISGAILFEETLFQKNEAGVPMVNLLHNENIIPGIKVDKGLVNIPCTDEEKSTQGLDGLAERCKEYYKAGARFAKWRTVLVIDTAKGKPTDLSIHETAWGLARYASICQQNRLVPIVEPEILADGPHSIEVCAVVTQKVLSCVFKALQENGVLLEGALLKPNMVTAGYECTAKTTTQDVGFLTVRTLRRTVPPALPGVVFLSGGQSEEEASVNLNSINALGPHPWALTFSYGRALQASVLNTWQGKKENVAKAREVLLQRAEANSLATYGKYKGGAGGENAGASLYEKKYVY

Consider “Biotin-KNSNEPHHIFNIFQKEFSEADNAHSEEKEEYLPVYFDEVEDEVEDEVEDEDENENEVENENEDFNDI [RH4, cytoplasmic domain of RH4, residues 1650–1716]”, for which, in the experiment with CK2, the “phosphorylation by CK2 in vitro” value is given as “one phosphate group”. On P. falciparum aldolase, the “increase in affinity for aldolase following phosphorylation” value is recorded as “no increase in affinity”.

In the case of “Biotin-KNNKQEYDKEQEKQQQNDFVCDNNKMDDKSTQKYGRNQEEVMEIFFDNDYI [RH1 2921–2971]”, binding on P. falciparum aldolase (biolayer interferometry (Octet Red), biotinylated CTD on streptavidin sensor, aldolase 0.05–250 μM, 100 mM Tris-HCl pH 8.0, 25°C, mean of duplicate reactions) was characterised by a dissociation constant (Kd) of 6.1 µM. The “increase in affinity for aldolase following phosphorylation” value at P. falciparum aldolase was “around 2 fold”. Moreover, the “CTD peptide phosphorylation by CDPK1 in vitro” value in the experiment on CDPK1 was “+”.
